Measurements reported in ChEMBL document CHEMBL3046649, “Fungitoxic and Phytotoxic Activities of Cinnamic Acid Esters and Amides” (2000).

Columns and labels:
[1] = tested on: Brassica rapa subsp. chinensis; experiment: whole plant or invertebrate; assay type: functional; conditions: 72 h, read-out: GI
Description: Phytotoxicity against Brassica rapa subsp. chinensis assessed as growth inhibition of radicle at 100 ppm treated to seeds after 3 days

Pythium [2] = experiment: Fungitoxic activity against Pythium sp. assessed as mycelial growth inhibition at 10 ppm after 4 to 5 days by agar dilution method; conditions: read-out: GI
Athelia rolfsii [3] = experiment: microbe, parasite or virus in culture; assay type: functional; conditions: Agroathelia rolfsii, read-out: GI
Description: Fungitoxic activity against Athelia rolfsii assessed as mycelial growth inhibition at 100 ppm after 4 to 5 days by agar dilution method

Pythium [4] = experiment: microbe, parasite or virus in culture; assay type: functional; conditions: read-out: GI
Description: Fungitoxic activity against Pythium sp. assessed as mycelial growth inhibition at 100 ppm after 4 to 5 days by agar dilution method

Athelia rolfsii [5] = experiment: Fungitoxic activity against Athelia rolfsii assessed as mycelial growth inhibition at 10 ppm after 4 to 5 days by agar dilution method; assay type: functional; conditions: Agroathelia rolfsii; read-out: GI
[6] = tested on: Brassica rapa subsp. chinensis; experiment: whole plant or invertebrate; assay type: functional; conditions: 72 h, read-out: GI; remark: listed apart in the source
Description: Phytotoxicity against Brassica rapa subsp. chinensis assessed as growth inhibition of hypocotyl at 100 ppm treated to seeds after 3 days

SMILES | inhibition of growth at 100 ppm [1] [%] | inhibition of growth at 10 ppm (Pythium [2]) [%] | inhibition of growth at 100 ppm (Athelia rolfsii [3]) [%] | inhibition of growth at 100 ppm (Pythium [4]) [%] | inhibition of growth at 10 ppm (Athelia rolfsii [5]) [%] | inhibition of growth at 100 ppm [6] [%]
CCCOC(=O)/C=C/c1ccc(Cl)cc1Cl [PROPYL 3-(2,4-DICHLOROPHENYL)ACRYLATE] | 79 | 14 | 84 | 77 | 32 | 41
CC(C)NC(=O)/C=C/c1ccc(Cl)cc1 [3-(4-CHLOROPHENYL)-N-ISOPROPYLACRYLAMIDE] | 57 | 20 | 94 | 45 | 66 | 26
CCCOC(=O)/C=C/c1ccccc1 [PROPYL CINNAMATE] | 7 | 18 | 86 | 95 | 40 | 31
CC(C)CNC(=O)/C=C/c1ccc(Cl)cc1 [3-(4-CHLOROPHENYL)-N-ISOBUTYLACRYLAMIDE] | 69 | 50 | 89 | 73 | 33 | 43
CCCNC(=O)/C=C/c1ccc(Cl)cc1 [3-(4-CHLOROPHENYL)-N-PROPYLACRYLAMIDE] | 64 | 30 | 97 | 88 | 32 | 43
CC(C)=CCCC(C)CCOC(=O)/C=C/c1ccc(Cl)cc1 (centres undefined) [3,7-DIMETHYLOCT-6-ENYL 3-(4-CHLOROPHENYL)ACRYLATE] | 15 | 8 | 83 | 64 | 19 | 26
CCC(C)NC(=O)/C=C/c1ccc(C(C)C)cc1 (centres undefined) [N-SEC-BUTYL-3-(4-ISOPROPYLPHENYL)ACRYLAMIDE] | 46 | 36 | 84 | 73 | 33 | 29
CC(C)=CCC/C(C)=C/COC(=O)/C=C/c1ccc(C(C)C)cc1 | 0 | 8 | 88 | 72 | 21 | 30
CCCCCOC(=O)/C=C/c1ccc(Cl)cc1 [PENTYL 3-(4-CHLOROPHENYL)ACRYLATE] | 22 | 17 | 82 | 58 | 20 | 27
CC(C)OC(=O)/C=C/c1ccc(Cl)cc1Cl [ISOPROPYL 3-(2,4-DICHLOROPHENYL)ACRYLATE] | 54 | 20 | 93 | 71 | 50 | 42
COC(=O)/C=C/c1ccc(C(C)C)cc1 | 21 | 7 | 97 | 82 | 35 | 38
CCCCCCNC(=O)/C=C/c1ccccc1 [N-HEXYLCINNAMAMIDE] | 82 | 14 | 91 | 87 | 32 | 55
CCCCCOC(=O)/C=C/c1ccc(C(C)C)cc1 [PENTYL 3-(4-ISOPROPYLPHENYL)ACRYLATE] | 0 | 3 | 79 | 51 | 13 | 29
CCC(C)NC(=O)/C=C/c1ccccc1 (centres undefined) [N-SEC-BUTYLCINNAMAMIDE] | 77 | 0 | 95 | 47 | 35 | 56
